Earlier results, collected in patent publication US20230405112A1, “PHARMACEUTICAL COMPOSITION, PHARMACEUTICAL COMBINED FORMULATION, AND COMBINED FORMULATION KIT FOR PREVENTION OR TREATMENT OF CHRONIC HEPATITIS B, EACH COMPRISING, AS ACTIVE INGREDIENT, ORAL ANTIVIRAL AGENT AND THERAPEUTIC VACCINE INCLUDING LIPOPEPTIDE AND POLY(I:C) ADJUVANT” (CHA VACCINE RESEARCH INSTITUTE CO., LTD, priority 2020, published 2023).
“And” between values parts separate entries of the source, which are not always exact repeats. Identical values can stand only once. Counter-ions that a name gives are not always drawn. Like-named read-outs stand apart in the source and are kept apart here.

Assays:
[1] = system: hepatitis B virus; details: after 1 year of treatment
[2] = system: virus-specific cytotoxic T lymphocytes (CTLs); details: combined with an influenza virus T cell epitope; administered to mice
[3] = system: hepatitis B virus
[4] = system: hepatitis B virus; remark: listed apart in the source
[5] = system: hepatitis B virus; details: Chinese patients; 7 years
[6] = system: hepatitis B virus; remark: listed apart in the source
[7] = baseline HBeAg(+), 1 year (week 48)
[8] = baseline HBeAg(+), 2 years (week 96)
[9] = baseline HBeAg(−), 1 year (week 48)
[10] = baseline HBeAg(−), 2 years (week 96)
[11] = HBeAg(+), 3-year follow-up, (non-Asian)
[12] = HBeAg(+), phase 3, 1 year, (non-Asian)
[13] = all patients, 10-year follow-up
[14] = HBeAg(+), phase 3, 2 year results

Molecule: CC(C)(C)C(=O)OCOP(=O)(COCCn1cnc2c(N)ncnc21)OCOC(=O)C(C)(C)C [ADV, Adefovirdipivoxil]
- ALT nomalisatioin ([1]; HBeAg(+) patients): 48~54%
- Anti-Hbe-seroconversion ([1]; HBeAg(+) patients): 12~18%
- HBV DNA <60~80 IU/ml ([1]; HBeAg(+) patients): 13~21%
- HBs Ag loss ([1]; HBeAg(+) patients): 0%
- ALT nomalisatioin ([1]; HBeAg(−) patients): 72~77%
- HBV DNA <60~80 IU/ml ([1]; HBeAg(−) patients): 51~63%
- HBs Ag loss ([1]; HBeAg(−) patients): 0%

Molecule: Cc1cn([C@@H]2C[C@@H](O)[C@H](CO)O2)c(=O)[nH]c1=O [TBV, Telbivudine]
- ALT nomalisatioin ([1]; HBeAg(+) patients): 77%
- Anti-Hbe-seroconversion ([1]; HBeAg(+) patients): 22%
- HBV DNA <60~80 IU/ml ([1]; HBeAg(+) patients): 60%
- HBs Ag loss ([1]; HBeAg(+) patients): 0.5%
- ALT nomalisatioin ([1]; HBeAg(−) patients): 74%
- HBV DNA <60~80 IU/ml ([1]; HBeAg(−) patients): 88%
- HBs Ag loss ([1]; HBeAg(−) patients): 0%

Molecule: Nc1ccn([C@@H]2CS[C@H](CO)O2)c(=O)n1 [LAM, Lamivudine]
- ALT nomalisatioin ([1]; HBeAg(+) patients): 41~72%
- Anti-Hbe-seroconversion ([1]; HBeAg(+) patients): 16~18%
- HBV DNA <60~80 IU/ml ([1]; HBeAg(+) patients): 36~44%
- HBs Ag loss ([1]; HBeAg(+) patients): 0~1%
- ALT nomalisatioin ([1]; HBeAg(−) patients): 71~79%
- HBV DNA <60~80 IU/ml ([1]; HBeAg(−) patients): 72~73%
- HBs Ag loss ([1]; HBeAg(−) patients): 0%

Molecule: Pam3Cys-Ser-Ser
- virus-specific cytotoxic T lymphocytes (CTLs) [2]: induced

Molecule: CC(C)OC(=O)[C@H](C)N[P@](=O)(CO[C@H](C)Cn1cnc2c(N)ncnc21)Oc1ccccc1 [TAF, Tenofoviralafenamide fumarate]
- HBeAg loss (%) ([3]; Total, 1 year (week 48)): (14%)
- HBeAg loss n/N ([3]; Total, 1 year (week 48)): 78/565
- HBsAg loss n/N ([3]; Total, 1 year (week 48)): 4/861
- HBeAg loss (%) ([3]; Total, 2 years (week 96)): (22%)
- HBeAg loss n/N ([3]; Total, 2 years (week 96)): 123/565
- HBsAg loss (%) ([3]; Total, 2 years (week 96)): (<1%)
- HBsAg loss n/N ([3]; Total, 2 years (week 96)): 8/861
- HBeAg seroconversion (%) ([3]; baseline HBeAg(+), 1 year): (10%)
- HBeAg seroconversion n/N ([3]; baseline HBeAg(+), 1 year): 58/565
- HBsAg seroconversion (%) ([3]; baseline HBeAg(+), 1 year): (1%)
- HBsAg seroconversion n/N ([3]; baseline HBeAg(+), 1 year): 3/576
- HBeAg loss n/N [3, 7]: 78/565
- HBsAg loss n/N [3, 7]: 4/576
- HBeAg seroconversion (%) ([3]; baseline HBeAg(+), 2 years): (18%)
- HBeAg seroconversion n/N ([3]; baseline HBeAg(+), 2 years): 99/565
- HBsAg seroconversion (%) ([3]; baseline HBeAg(+), 2 years): (1%)
- HBsAg seroconversion n/N ([3]; baseline HBeAg(+), 2 years): 6/576
- Average reduction of HBsAg [3, 8]: −0.51 log10IU/ml
- HBeAg loss n/N [3, 8]: 123/565
- HBsAg loss n/N [3, 8]: 7/576
- HBsAg seroconversion n/N ([3]; baseline HBeAg(−), 1 year): 0
- HBsAg loss n/N [3, 9]: 0
- HBsAg seroconversion (%) ([3]; baseline HBeAg(−), 2 years): (<1%)
- HBsAg seroconversion n/N ([3]; baseline HBeAg(−), 2 years): 1/281
- Average reduction of HBsAg [3, 10]: −0.14 log10IU/ml
- HBsAg loss (%) [3, 10]: (<1%)
- HBsAg loss n/N [3, 10]: 1/281
- ALT nomalisatioin ([1]; HBeAg(+) patients): 72%
- Anti-Hbe-seroconversion ([1]; HBeAg(+) patients): 10%
- HBV DNA <60~80 IU/ml ([1]; HBeAg(+) patients): 64%
- HBs Ag loss ([1]; HBeAg(+) patients): 1%
- ALT nomalisatioin ([1]; HBeAg(−) patients): 83%
- HBV DNA <60~80 IU/ml ([1]; HBeAg(−) patients): 94%
- HBs Ag loss ([1]; HBeAg(−) patients): 0%

Molecule: CC(C)OC(=O)OCOP(=O)(CO[C@H](C)Cn1cnc2c(N)ncnc21)OCOC(=O)OC(C)C [TDF, Tenofovirdisoproxil fumarate]
- HBeAg loss (%) ([4]; HBeAg(+), 3-year follow-up): 34%
- HBeAg seroconversion (%) ([4]; HBeAg(+), 3-year follow-up): 26%
- HBsAg loss (%) [kaplan-meier] [4, 11]: 8%
- HBsAg seroconversion (%) [kaplan-meier] [4, 11]: 6%
- HBsAg seroconversion, n patients [4, 11]: (n = 15)
- HBeAg loss n/N ([4]; HBeAg(+), 7-year follow-up): 84/154
- HBeAg seroconversion n/N ([4]; HBeAg(+), 7-year follow-up): 61/154
- HBsAg loss (%) [kaplan-meier] ([4]; HBeAg(+), 7-year follow-up): 11.8%
- HBsAg loss, n patients ([4]; HBeAg(+), 7-year follow-up): (n = 27)
- HBsAg seroconversion (%) [kaplan-meier] ([4]; HBeAg(+), 7-year follow-up): 9.7%
- HBsAg seroconversion, n patients ([4]; HBeAg(+), 7-year follow-up): (n = 21)
- HBeAg loss n/N ([4]; HBeAg(+), 10-year follow-up): 12/23
- HBeAg seroconversion n/N ([4]; HBeAg(+), 10-year follow-up): 6/22
- HBsAg loss n/N ([4]; HBeAg(+), 10-year follow-up, (non-Asian)): 4/81
- HBeAg seroconversion n/N ([4]; HBeAg(+), phase 3, 1 year): 32/153
- HBsAg loss n/N [4, 12]: 5/158
- HBsAg seroconversion n/N [4, 12]: 2/158
- HBsAg loss n/N ([4]; HBeAg(−), 3-year follow-up): 0
- HBsAg seroconversion n/N ([4]; HBeAg(−), 3-year follow-up): 0
- HBsAg seroconversion n/N ([4]; HBeAg(−), 7-year follow-up): 0
- HBsAg loss n/N ([4]; HBeAg(−), 10-year follow-up, (non-Asian)): 4/117
- HBsAg loss n/N ([4]; HBeAg(−), phase 3, 1 year): 0
- HBsAg seroconversion n/N ([4]; HBeAg(−), phase 3, 1 year): 0
- HBsAg loss (%) [4, 13]: 4.0%
- HBsAg loss n/N [4, 13]: 8/198
- HBsAg loss, number of patients ([4]; all patients, over 7 years): 28
- change of HBsAg levels ([4]; patients first receiving oral antiviral agent, after 2 years (96 weeks), FIG. 1): no significant change
- HBeAg loss (%) ([3]; Total, 1 year (week 48)): (12%)
- HBeAg loss n/N ([3]; Total, 1 year (week 48)): 34/285
- HBsAg loss (%) ([3]; Total, 1 year (week 48)): (<1%)
- HBsAg loss n/N ([3]; Total, 1 year (week 48)): 1 out of 428 and 1/428
- HBeAg loss (%) ([3]; Total, 2 years (week 96)): (18%)
- HBeAg loss n/N ([3]; Total, 2 years (week 96)): 51/285
- HBsAg loss (%) ([3]; Total, 2 years (week 96)): (<1%)
- HBsAg loss n/N ([3]; Total, 2 years (week 96)): 4/428
- HBeAg seroconversion (%) ([3]; baseline HBeAg(+), 1 year): (8%)
- HBeAg seroconversion n/N ([3]; baseline HBeAg(+), 1 year): 23/285
- HBsAg seroconversion n/N ([3]; baseline HBeAg(+), 1 year): 0
- HBeAg loss n/N [3, 7]: 34/285
- HBsAg loss n/N [3, 7]: 1/288
- HBeAg seroconversion (%) ([3]; baseline HBeAg(+), 2 years): (12%)
- HBeAg seroconversion n/N ([3]; baseline HBeAg(+), 2 years): 35/285
- HBsAg seroconversion n/N ([3]; baseline HBeAg(+), 2 years): 0
- Average reduction of HBsAg [3, 8]: −0.64 log10IU/ml
- HBeAg loss n/N [3, 8]: 51/285
- HBsAg loss n/N [3, 8]: 4/288
- HBsAg seroconversion n/N ([3]; baseline HBeAg(−), 1 year): 0
- HBsAg loss n/N [3, 9]: 0
- HBsAg seroconversion n/N ([3]; baseline HBeAg(−), 2 years): 0
- Average reduction of HBsAg [3, 10]: −0.10 log10IU/ml
- HBsAg loss n/N [3, 10]: 0
- ALT nomalisatioin ([1]; HBeAg(+) patients): 68%
- Anti-Hbe-seroconversion ([1]; HBeAg(+) patients): 21%
- HBV DNA <60~80 IU/ml ([1]; HBeAg(+) patients): 76%
- HBs Ag loss ([1]; HBeAg(+) patients): 3%
- ALT nomalisatioin ([1]; HBeAg(−) patients): 76%
- HBV DNA <60~80 IU/ml ([1]; HBeAg(−) patients): 93%
- HBs Ag loss ([1]; HBeAg(−) patients): 0%

Molecule: C=C1[C@H](CO)[C@@H](O)C[C@@H]1n1cnc2c(=O)[nH]c(N)nc21 [Entecavir]
- HBeAg seroconversion rate (Kaplan-meier analysis) [5]: 82.1%
- HBsAg loss (%) [5]: 2.5%
- HBsAg loss, patients [5]: 4 of 160
- HBeAg seroconversion (%) ([6]; 5 year results): 23%
- HBeAg seroconversion n/N ([6]; 5 year results): 33/141
- HBsAg loss (%) ([6]; HBeAg(+), 5 year results): 1.4%
- HBsAg loss n/N ([6]; HBeAg(+), 5 year results): 2/145
- HBsAg loss (%) [6, 14]: 5%
- HBsAg loss n/N [6, 14]: 18/354
- HBsAg seroconversion (%) [6, 14]: 2%
- HBsAg seroconversion n/N [6, 14]: 6/354
- HBeAg seroconversion (%) ([6]; phase 3, 2 year results): 31%
- HBeAg seroconversion n/N ([6]; phase 3, 2 year results): 110/354
- ALT nomalisatioin ([1]; HBeAg(+) patients): 68%
- Anti-Hbe-seroconversion ([1]; HBeAg(+) patients): 21%
- HBV DNA <60~80 IU/ml ([1]; HBeAg(+) patients): 67%
- HBs Ag loss ([1]; HBeAg(+) patients): 2%
- ALT nomalisatioin ([1]; HBeAg(−) patients): 78%
- HBV DNA <60~80 IU/ml ([1]; HBeAg(−) patients): 90%
- HBs Ag loss ([1]; HBeAg(−) patients): 0%
